Test [1] addresses Proto-oncogene tyrosine-protein kinase Src (Homo sapiens, UniProt P12931). In words: Inhibition of SRC (unknown origin) after 60 mins by TR-FRET assay.
The target of test [2] is Calcium/calmodulin-dependent protein kinase kinase 2 (Homo sapiens, UniProt Q96RR4). In words: Inhibition of CAMKK2 (unknown origin) after 60 mins by TR-FRET assay.
Test [3] has as its target cGMP-dependent protein kinase 1 (Homo sapiens, UniProt Q13976). In words: Inhibition of PKG1A (unknown origin) after 60 mins by TR-FRET assay. A general note: Time-resolved FRET reads energy transfer from a long-lived donor to a nearby acceptor.

Structures are written as SMILES.

cGMP-dependent protein kinase 1, sequence (Q13976 whole entry): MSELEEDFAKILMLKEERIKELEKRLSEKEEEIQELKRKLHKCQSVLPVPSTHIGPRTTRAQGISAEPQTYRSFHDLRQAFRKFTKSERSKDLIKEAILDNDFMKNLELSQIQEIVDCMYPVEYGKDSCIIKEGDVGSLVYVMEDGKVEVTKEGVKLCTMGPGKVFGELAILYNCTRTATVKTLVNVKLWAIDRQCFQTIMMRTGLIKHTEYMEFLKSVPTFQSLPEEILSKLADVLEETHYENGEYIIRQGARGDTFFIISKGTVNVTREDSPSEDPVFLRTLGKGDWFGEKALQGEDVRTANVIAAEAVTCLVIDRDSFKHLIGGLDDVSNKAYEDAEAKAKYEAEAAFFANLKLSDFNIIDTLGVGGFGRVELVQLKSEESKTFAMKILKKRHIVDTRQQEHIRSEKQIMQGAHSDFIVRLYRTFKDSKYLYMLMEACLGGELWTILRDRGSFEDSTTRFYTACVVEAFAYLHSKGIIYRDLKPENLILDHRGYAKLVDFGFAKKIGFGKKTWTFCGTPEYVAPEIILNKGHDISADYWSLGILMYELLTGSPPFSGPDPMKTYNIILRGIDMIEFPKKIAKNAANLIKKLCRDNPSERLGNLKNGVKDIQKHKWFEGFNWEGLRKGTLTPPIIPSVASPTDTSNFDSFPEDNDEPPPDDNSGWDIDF
Proto-oncogene tyrosine-protein kinase Src, sequence (P12931 2-536 limits assumed): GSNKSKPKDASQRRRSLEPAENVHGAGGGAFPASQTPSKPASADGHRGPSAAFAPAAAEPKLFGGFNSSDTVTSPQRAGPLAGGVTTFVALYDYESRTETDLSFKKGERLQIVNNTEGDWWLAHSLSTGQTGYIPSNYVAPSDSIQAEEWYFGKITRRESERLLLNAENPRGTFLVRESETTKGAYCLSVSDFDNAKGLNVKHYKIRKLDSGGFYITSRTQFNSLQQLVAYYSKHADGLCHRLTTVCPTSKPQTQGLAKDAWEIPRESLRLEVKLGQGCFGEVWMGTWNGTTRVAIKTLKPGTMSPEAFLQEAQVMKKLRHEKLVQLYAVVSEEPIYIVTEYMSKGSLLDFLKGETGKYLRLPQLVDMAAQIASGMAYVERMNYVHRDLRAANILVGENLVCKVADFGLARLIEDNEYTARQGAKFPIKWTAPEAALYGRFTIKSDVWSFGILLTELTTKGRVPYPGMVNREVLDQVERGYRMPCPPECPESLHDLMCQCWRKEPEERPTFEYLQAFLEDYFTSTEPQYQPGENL
Calcium/calmodulin-dependent protein kinase kinase 2, sequence (Q96RR4 whole entry): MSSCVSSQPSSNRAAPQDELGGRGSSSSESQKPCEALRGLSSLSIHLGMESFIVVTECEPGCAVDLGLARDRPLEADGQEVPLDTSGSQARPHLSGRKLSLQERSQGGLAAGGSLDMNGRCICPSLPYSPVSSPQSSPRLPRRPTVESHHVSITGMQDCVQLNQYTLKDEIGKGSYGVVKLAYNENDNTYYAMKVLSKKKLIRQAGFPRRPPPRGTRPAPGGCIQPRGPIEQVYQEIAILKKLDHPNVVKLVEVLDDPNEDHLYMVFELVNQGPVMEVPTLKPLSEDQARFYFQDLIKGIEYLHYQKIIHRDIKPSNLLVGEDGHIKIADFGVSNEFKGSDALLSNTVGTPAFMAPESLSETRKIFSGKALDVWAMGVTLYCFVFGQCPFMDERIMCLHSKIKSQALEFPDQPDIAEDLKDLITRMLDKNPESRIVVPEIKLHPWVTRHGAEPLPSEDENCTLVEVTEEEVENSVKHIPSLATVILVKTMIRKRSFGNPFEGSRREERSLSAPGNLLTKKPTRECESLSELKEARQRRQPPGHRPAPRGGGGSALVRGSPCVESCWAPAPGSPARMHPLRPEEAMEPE

The term IC50 denotes the concentration that inhibits the measured activity by half. On to `CC1(C)OCC(=O)Nc2cc(Nc3nc(NCC(F)(F)F)c4occc4n3)ccc21`, for which the values for the IC50 in test [1], in test [2] and in test [3] were 156 nM, 1910 nM and more than 10000 nM, respectively.

For the origin of these results see ChEMBL document CHEMBL4007384, “Synthesis and optimization of furano[3,2-d]pyrimidines as selective spleen tyrosine kinase (Syk) inhibitors” (Bioorg Med Chem Lett, 2016).
